In PubChem BioAssay AID686930 (Broad Institute, 2013) one finds AC40 and light induction (activation) data, which are given here for 92 compounds.

In assay [1] the test system is V. cholerae WN1103 ΔluxQ, lux luminescence, 6 h. Put plainly: Confirmatory dose response, V. cholerae WN1103 δluxq inducers of light production, absence of autoinducers (AID 686930).
Assay in assay [2]: as above
The settings on record: V. cholerae WN1103 ΔluxQ, lux luminescence, 6 h.

“And” between values parts separate entries of the source, which are not always exact repeats. Identical values can stand only once. The source made the active and inactive calls. The rule behind the calls is not given here. Some results are limits rather than exact numbers.

As to `CCn1nnnc1NC(C)c1ccc(N2CCCC2)cc1` (configuration not stated), the AC40 in assay [1] is 34.7 µM.
As to `Cn1nc(NC(=O)c2ccco2)c2cccnc21`, the AC40 in assay [1] was 44.1 µM.
`O=C(Nc1nnc(-c2cccnc2)o1)C1CCCCC1`: the light induction (activation) in assay [2] (at 100 µM (top of the series)) was 7.84% (inactive).
For `CCc1ccc2cc3c(NC(=O)c4ccco4)nn(C)c3nc2c1`, in assay [1], the AC40 is 42.1 µM.
On to `O=c1ncn(-c2ccc(Cl)c(Cl)c2)c2ccccc12`, for which the light induction (activation) in assay [2] (at 80 µM (top of the series)) is 0.121% (inactive).
As to `O=C1C(=O)N(Cc2cccc(Cl)c2)c2ccccc21`, the light induction (activation) in assay [2] (at 80 µM (top of the series)) is 0.237% (inactive).
Regarding `O=C(Nc1nnc(-c2ccc3c(c2)OCCO3)o1)C(F)(F)c1ccccc1`, in assay [2] (at 100 µM (top of the series)), the light induction (activation) is -0.027% (inactive).
Still for that read-out and setting: then `Cn1nc(NC(=O)c2ccco2)c2ccccc21`, with 3.2% (inactive); and `O=C(Nc1nnc(-c2ccncc2)o1)C1CCC1`, with 0.061% (inactive).
Same read-out and setting: the figure for `C(=N\c1nnc(-c2ccc3c(c2)OCCO3)o1)/c1ccccc1` is 0.005% (inactive).
For the compound `O=C(Nc1nnc(-c2ccc(Cl)cc2)o1)C1CCCCC1`, in assay [2] (at 80 µM (top of the series)), the light induction (activation) was 0.835% (inactive).
Still for that read-out and setting: then `O=C(O)c1ccccc1Nc1cccc(Cl)c1`, with 0.041% (inactive); and `O=c1nc(Cc2ccccc2)n(-c2cccc(Cl)c2)c2ccccc12`, with 17.7% (inactive); and `CCOC(=O)c1ccccc1Nc1cccc(Cl)c1`, with 0.033% (inactive).
Take `O=C(Nc1nnc(C2CCCC2)o1)C1CCCCC1`: the light induction (activation) in assay [2] (at 100 µM (top of the series)) is 0.003% (inactive).
With `Cc1ccc2c(c1)c(=O)ncn2-c1cccc(Cl)c1`, the AC40 in assay [1] is 1.45 µM.
`O=C(Nc1nnc(-c2ccc3c(c2)OCCO3)o1)C1CCCCC1`: the AC40 in assay [1] is 5.8 µM and 1.96 µM.
Turning to `CCC(C)(C)C(=O)Nc1nnc(-c2ccc3c(c2)OCCO3)o1`, the light induction (activation) in assay [2] (at 80 µM (top of the series)) is -0.001% (inactive).
Same read-out and setting: the figure for `O=c1ncn(Cc2ccc(Cl)cc2)c2ccccc12` is 3.21% (inactive).
The same measure, in the same setting: then `Cc1ccc2c(=O)ncn(-c3cccc(Cl)c3)c2c1`, with 0.092% (inactive).
As for `O=C(Nc1nnc(-c2ccc3c(c2)OCCO3)o1)C1CCC1`, in assay [2] (at 100 µM (top of the series)), the light induction (activation) was 0.014% (inactive).
`O=C1C(=O)N(Cc2ccccc2Cl)c2ccccc21`: the light induction (activation) in assay [2] (at 80 µM (top of the series)) was 0.599% (inactive).
As for `CC(C)(C)COC(=O)CSc1n[nH]c(=O)[nH]c1=O`, the AC40 in assay [1] is 18.9 µM.
Turning to `O=C(Nc1nnc(-c2cccc(Cl)c2)o1)C1CCCCC1`, the light induction (activation) in assay [2] (at 80 µM (top of the series)) was 0.053% (inactive).
On to `O=c1ncn(-c2ccccc2Cl)c2ccccc12`, for which the light induction (activation) in assay [2] (at 80 µM (top of the series)) is 5% (inactive).
Take `O=C(Cc1ccc(-c2ccccc2)cc1)NC1CNC1`: the light induction (activation) in assay [2] (at 100 µM (top of the series)) was 0.006% (inactive).
As for `Cc1cc2cc3c(NC(=O)c4ccco4)nn(C)c3nc2cc1C`, in assay [1], the AC40 was 71.7 µM.
With `Cc1ccc2cc3c(NC(=O)c4ccccn4)nn(C)c3nc2c1`, the light induction (activation) in assay [2] (at 100 µM (top of the series)) is -0.007% (inactive).
For the compound `COc1ccc2cc3c(NC(=O)c4ccco4)nn(C)c3nc2c1`, the AC40 in assay [1] was 0.901 µM.
On to `O=C(Nc1nnc(-c2ccc3c(c2)OCCO3)o1)C1CC1`, for which the light induction (activation) in assay [2] (at 100 µM (top of the series)) was 0.003% (inactive).
Regarding `Cc1ccc2cc3c(NC(=O)c4ccoc4)nn(C)c3nc2c1`, the light induction (activation) in assay [2] (at 80 µM (top of the series)) is 6.06% (inactive).
On the same count and under the same terms, the figure for `O=c1ncn(-c2cccc(Cl)c2)c2cccc(Cl)c12` is 0.081% (inactive).
Consider `Cc1nc(=O)c2ccccc2n1-c1cccc(Cl)c1`, for which the AC40 in assay [1] was 18.1 µM.
Still for that read-out and setting: then `O=C(Nc1nnc(-c2ccc3c(c2)OCCO3)o1)C1CCCCCC1`, with 9.05 µM.
With `CC(C)(C)OC(=O)N1CCC(C(=O)Nc2nnc(-c3ccc4c(c3)OCCO4)o2)CC1`, the light induction (activation) in assay [2] (at 100 µM (top of the series)) is 0.028% (inactive).
Take `O=C(CSc1nc2c(c(=O)[nH]1)CCCC2)NC1CCCCC1`: in assay [2] (at 80 µM (top of the series)), the light induction (activation) is 1.52% (inactive).
Take `Cc1cccc(-n2cnc(=O)c3ccccc32)c1`: the AC40 in assay [1] was 0.199 µM.
Same read-out and setting: the figure for `CCCCCCCCCC(=O)C(O)CC` (configuration not stated) is 0.848 µM.
Take `CCn1nnnc1N`: in assay [2] (at 100 µM (top of the series)), the light induction (activation) was 0.029% (inactive).
On the same count and under the same terms, the figure for `COc1cccc(-c2nnc(NC(=O)C3CCCCC3)o2)c1` is 0.041% (inactive).
As to `O=c1ncn(-c2cccc(Cl)c2)c2cc(Cl)ccc12`, the light induction (activation) in assay [2] (at 80 µM (top of the series)) was 0.848% (inactive).
Take `Cc1ccc2cc3c(NC(=O)C4CCCC4)nn(C)c3nc2c1`: in assay [1], the AC40 is 59.3 µM.
The same measure, in the same setting: the figure for `Cc1ccc2cc3c(NC(=O)c4cccs4)nn(C)c3nc2c1` is > 80 µM (inactive).
The same measure, in the same setting: the figure for `O=C(Cc1ccc(-c2ccccc2)cc1)N[C@@H]1CCOC1` (racemic) is 31.2 µM.
On to `O=c1nc(-c2ccccc2)n(-c2cccc(Cl)c2)c2ccccc12`, for which the light induction (activation) in assay [2] (at 80 µM (top of the series)) was -0.003% (inactive).
Same read-out and setting: then `COC(=O)c1ccccc1Nc1cccc(Cl)c1`, with 0.819% (inactive).
For `CCn1nnnc1/N=C/c1ccc(N2CCCCC2)cc1`, the light induction (activation) in assay [2] (at 100 µM (top of the series)) was 1.21% (inactive).
`Cn1nc(NC(=O)c2ccco2)c2cc3ccccc3nc21`: the AC40 in assay [1] is 4.12 µM.
For the compound `Cc1ccc2cc3c(NC(=O)c4cc5ccccc5o4)nn(C)c3nc2c1`, in assay [2] (at 100 µM (top of the series)), the light induction (activation) was -0.001% (inactive).
Consider `Cc1cc(F)c2cc3c(NC(=O)c4ccco4)nn(C)c3nc2c1`, for which the AC40 in assay [1] was 47 µM.
Consider `O=C(CSc1nc2ccccc2c(=O)[nH]1)NC1CCCCC1`, for which, in assay [2] (at 80 µM (top of the series)), the light induction (activation) was 0.011% (inactive).
Consider `O=c1ncn(-c2cc(Cl)cc(Cl)c2)c2ccccc12`, for which, in assay [1], the AC40 is 1.09 µM.
With `O=c1ncn(-c2cccc(Cl)c2)c2ccc(Cl)cc12`, the AC40 in assay [1] is 1.33 µM.
On to `O=C(CC1CCCCC1)Nc1nnc(-c2cccnc2)o1`, for which, in assay [2] (at 80 µM (top of the series)), the light induction (activation) was -0.002% (inactive).
Regarding `Cn1ccc(NC(=O)c2ccco2)n1`, the light induction (activation) in assay [2] (at 100 µM (top of the series)) was 0.057% (inactive).
On to `O=C(Nc1nnc(-c2ccc3c(c2)CCCC3)o1)C1CCC1`, for which, in assay [2] (at 80 µM (top of the series)), the light induction (activation) is 0.009% (inactive).
With `O=c1ncn(-c2cccc(F)c2)c2ccccc12`, in assay [1], the AC40 was 0.302 µM.
Consider `O=C(Nc1nnc(-c2cccnc2)o1)C1CCC1`, for which the light induction (activation) in assay [2] (at 100 µM (top of the series)) was -0.007% (inactive).
Take `O=C(Cc1ccc(-c2ccccc2)cc1)NC1CCC1`: the AC40 in assay [1] was 5.06 µM.
With `CN1CCC(C(=O)Nc2nnc(-c3ccc4c(c3)OCCO4)o2)CC1`, the light induction (activation) in assay [2] (at 100 µM (top of the series)) is 0.046% (inactive).
As to `NC(=O)c1ccccc1Nc1ccccc1`, in assay [2] (at 80 µM (top of the series)), the light induction (activation) is 1.21% (inactive).
`O=S(=O)(Nc1nnc(-c2ccc3c(c2)OCCO3)o1)c1ccc(Cl)cc1`: the light induction (activation) in assay [2] (at 100 µM (top of the series)) was -0.019% (inactive).
Turning to `CCCCCCCCCC(=O)[C@H](O)CC` (racemic), the AC40 in assay [1] is 1.92 µM.
Same read-out and setting: the figure for `Cc1cc(F)cc2nc3c(cc12)c(NC(=O)c1ccco1)nn3C` is 27.1 µM.
Regarding `Cn1nc(NC(=O)c2ccco2)c2cc3ccc(C(C)(C)C)cc3nc21`, the light induction (activation) in assay [2] (at 100 µM (top of the series)) was -0.007% (inactive).
The same measure, in the same setting: the figure for `O=C(Nc1nnc(-c2ccccc2Cl)o1)C1CCCCC1` is 0.001% (inactive).
On to `Cc1ccc(-n2cnc(=O)c3ccccc32)cc1Cl`, for which, in assay [2] (at 80 µM (top of the series)), the light induction (activation) was 0.708% (inactive).
With `CN(C)/C=N/c1nnc(-c2ccc3c(c2)OCCO3)o1`, the light induction (activation) in assay [2] (at 100 µM (top of the series)) is 0.028% (inactive).
As to `COc1ccc2c(=O)ncn(-c3cccc(Cl)c3)c2c1`, the light induction (activation) in assay [2] (at 80 µM (top of the series)) was 0.054% (inactive).
Regarding `COc1cccc(-n2cnc(=O)c3ccccc32)c1`, the light induction (activation) in assay [2] (at 80 µM (top of the series)) was 12% (inactive).
For `COc1ccc(S(=O)(=O)Nc2nnc(-c3ccc4c(c3)OCCO4)o2)cc1`, the light induction (activation) in assay [2] (at 100 µM (top of the series)) is -0.015% (inactive).
Consider `Cc1cc2nc3c(cc2cc1F)c(NC(=O)c1ccco1)nn3C`, for which the AC40 in assay [1] was 57.3 µM.
Consider `COc1ccc(-c2nnc(NC(C)=O)o2)cc1`, for which the light induction (activation) in assay [2] (at 100 µM (top of the series)) was 0.052% (inactive).
For `O=C(Nc1nnc(-c2ccc3c(c2)OCCO3)o1)C1CCCC1`, the light induction (activation) in assay [2] (at 80 µM (top of the series)) was 0.121% (inactive).
For the compound `Cc1ccc2cc3c(NC(=O)Cc4ccco4)nn(C)c3nc2c1`, in assay [2] (at 100 µM (top of the series)), the light induction (activation) is 0.668% (inactive).
Still for that read-out and setting: the figure for `CC(C)c1ccc2cc3c(NC(=O)c4ccco4)nn(C)c3nc2c1` is 0.362% (inactive); for `O=C(Cc1ccc(-c2ccccc2)cc1)NC1COC1` it is 32.6% (inactive).
For `COc1ccccc1-c1nnc(NC(=O)C2CCCCC2)o1`, the AC40 in assay [1] was > 100 µM (inactive).
In the case of `CCc1nc(=O)c2ccccc2n1-c1cccc(Cl)c1`, in assay [2] (at 80 µM (top of the series)), the light induction (activation) is 0.68% (inactive).
With `COc1ccc(-n2cnc(=O)c3ccccc32)cc1Cl`, in assay [2] (at 80 µM (top of the series)), the light induction (activation) was 1.24% (inactive).
`c1ccc(CNc2nnc(-c3ccc4c(c3)OCCO4)o2)cc1`: in assay [2] (at 100 µM (top of the series)), the light induction (activation) is 0.006% (inactive).
With `CCn1nnnc1NCc1ccc(C(C)C)cc1`, the AC40 in assay [1] was 0.255 µM.
Still for that read-out and setting: then `O=c1ncn(-c2ccccc2)c2ccccc12`, with 0.361 µM.
`O=c1ncn(-c2ccc(Cl)cc2)c2ccccc12`: the light induction (activation) in assay [2] (at 80 µM (top of the series)) was 0.086% (inactive).
Still for that read-out and setting: the figure for `Cn1cnc(=O)c2ccccc21` is 0.063% (inactive).
As for `O=C(CC1CCCCC1)Nc1nnc(-c2ccc3c(c2)CCCC3)o1`, the light induction (activation) in assay [2] (at 35 µM (top of the series)) is 0.068% (inactive).
Consider `Cc1ccc2cc3c(NC(=O)c4ccc(C)o4)nn(C)c3nc2c1`, for which the light induction (activation) in assay [2] (at 100 µM (top of the series)) is 8.61% (inactive).
Regarding `NC(=O)c1ccccc1Nc1cccc(Cl)c1`, the light induction (activation) in assay [2] (at 80 µM (top of the series)) is 0.32% (inactive).
Same read-out and setting: the figure for `O=c1[nH]cnc2ccccc12` is 0.044% (inactive).
`O=c1ncn(-c2cccc(Cl)c2)c2ccccc12`: in assay [1], the AC40 is 0.0667 µM and 0.362 µM.
Same read-out and setting: the figure for `COc1ccc(-c2nnc(NC(=O)C3CCCCC3)o2)cc1` is > 100 µM (inactive).
The same measure, in the same setting: the figure for `O=c1ncn(-c2ccc(F)c(Cl)c2)c2ccccc12` is 5.38 µM.
